Experiments:
[1] = system: ES2 ARID1A-knockdown cells (shARID1A); experiment: Cell growth after 72 h drug treatment, ARID1A-knockdown versus control cells; assay type: cell-based, human; details: 72 h treatment; compared to untransfected or shCon ES2 cells
Description: Short Hairpin RNA (shRNA)-Mediated Knockdown and Expression of ARID1A in ovarian and endometrial carcinoma cells. shRNA lentiviral supernatants were produced using standard protocols, as previously described^8. Vectors were transfected into HEK293FT cells using X-tremeGENE 9 DNA Transfection Reagent (from Roche). Retroviral supernatants isolated at 48 h were diluted 1:1 in culture medium and used to infect ARID1A-wildtype ES2 and KLE cell lines. Stably transfected subclones were expanded using puromycin (from Dot Scientific) drug selection. For expression of ARID1A in the ARID1A-mutant HEC-1-A cell line, pCIN4-HA-ARID1A was transfected using X-tremeGENE 9 DNA Transfection Reagent (from Roche), followed by selection with G418 (from Gibco). For expression of ARID1A in the ARID1A-mutant SKOV3 and OVISE cell lines, V5/His-tagged pLenti-puro-LacZ and pLenti-puro-ARID1A were transfected using lentivirus. […]
(§1) Cytotoxicity assay. […] Cell number was determined using a sulforhodamine B (SRB) assay, as previously described^23. […] After washing, protein-bound dye was solubilized with 10 mM unbuffered Tris-base solution (pH 10.5) and detected at 510 nm using a microplate reader. Percentage of cell-growth was calculated using the following formula: % cell growth=[(Absorbance sample)/(Absorbance untreated)]×100 […]

ES2 cells = experiment: Cytotoxicity (SRB) assay with CalcuSyn combination analysis; assay type: cell-based; details: Homo sapiens, ES-2, Table 2; ES2 parental; VX970 alone; read-out: Dm
Description: Cytotoxicity assay. Cells were seeded in 96-well plates, with 2000 cells in 100 μL/well, and cultured for 24 h. The cells were treated with serial dilutions of drugs or without drug for an additional 72 h. Cell number was determined using a sulforhodamine B (SRB) assay, as previously described^23. Briefly, cells were fixed with 20% trichloroacetic acid (TCA), air-dried, and stained with 0.4% SRB dissolved in 1% acetic acid. After washing, protein-bound dye was solubilized with 10 mM unbuffered Tris-base solution (pH 10.5) and detected at 510 nm using a microplate reader. Percentage of cell-growth was calculated using the following formula: % cell growth=[(Absorbance sample)/(Absorbance untreated)]×100 […] Datasets from at least three independent experiments were combined, and each table cell contains the mean value±SD. SCR, ES2-shScrambled. N/A, not applicable. Statistical analysis was carried out by one-way ANOVA with Bonferroni's post-hoc test, and differences were considered significant at **P<0.01 and ***P<0.001 as compared to the ES2 parental group with the same drug treatment. […] CIwt value was calculated using the formula: […] Datasets from at least three independent experiments were combined, and each table cell contains the mean value±SD. Teri, teriflunomide. SCR, ES2-shScrambled. N/A, not applicable. Statistical analysis was carried out by one-way ANOVA with Bonferroni's post-hoc test, and differences were considered significant at ***P<0.001 as compared to the ES2 parental group with the same drug treatment.

ES2 shARID1A (a) cells = experiment: as above; assay type: cell-based; details: Homo sapiens, Table 2, VX970 alone, read-out: Dm
Description: (§2) Short Hairpin RNA (shRNA)-Mediated Knockdown and Expression of ARID1A in ovarian and endometrial carcinoma cells. shRNA lentiviral supernatants were produced using standard protocols, as previously described^8. Vectors were transfected into HEK293FT cells using X-tremeGENE 9 DNA Transfection Reagent (from Roche). Retroviral supernatants isolated at 48 h were diluted 1:1 in culture medium and used to infect ARID1A-wildtype ES2 and KLE cell lines. Stably transfected subclones were expanded using puromycin (from Dot Scientific) drug selection. For expression of ARID1A in the ARID1A-mutant HEC-1-A cell line, pCIN4-HA-ARID1A was transfected using X-tremeGENE 9 DNA Transfection Reagent (from Roche), followed by selection with G418 (from Gibco). For expression of ARID1A in the ARID1A-mutant SKOV3 and OVISE cell lines, V5/His-tagged pLenti-puro-LacZ and pLenti-puro-ARID1A were transfected using lentivirus. Lentivirus was produced using HEK293FT cells with the second-generation packaging system pSPAX2 (Addgene plasmid) and pMD2.G (Addgene plasmid). Stably transfected subclones were expanded using puromycin and blasticidin (Gibco) drug selection.
(§3) Cytotoxicity assay. Cells were seeded in 96-well plates, with 2000 cells in 100 μL/well, and cultured for 24 h. The cells were treated with serial dilutions of drugs or without drug for an additional 72 h. Cell number was determined using a sulforhodamine B (SRB) assay, as previously described^23. Briefly, cells were fixed with 20% trichloroacetic acid (TCA), air-dried, and stained with 0.4% SRB dissolved in 1% acetic acid. After washing, protein-bound dye was solubilized with 10 mM unbuffered Tris-base solution (pH 10.5) and detected at 510 nm using a microplate reader. Percentage of cell-growth was calculated using the following formula: % cell growth=[(Absorbance sample)/(Absorbance untreated)]×100
(§4) Using CalcuSyn software (Biosoft), dose-effect curves were generated, and drug concentrations corresponding to a 50% decrease in cell number (IC50) were determined.
(§5) Drug concentrations corresponding to a median effect (Dm) are shown for each treatment; teriflunomide concentration is shown for combination (Combo) treatment at a 10:1 fixed molar ratio of two drugs, teriflunomide and AZD6738. […] Datasets from at least three independent experiments were combined, and each table cell contains the mean value±SD. SCR, ES2-shScrambled. N/A, not applicable. Statistical analysis was carried out by one-way ANOVA with Bonferroni's post-hoc test, and differences were considered significant at **P<0.01 and ***P<0.001 as compared to the ES2 parental group with the same drug treatment.
(§6) Drug concentrations (in μM for teriflunomide, in nM for […]) corresponding to median effect (Dm) are shown for each treatment; teriflunomide concentration is shown for combination (Combo) treatment at a 200:1 fixed molar ratio of the two drugs, teriflunomide and VX-970. […] CIwt<0.8, =0.8 to 1.2, and >1.2 indicates synergism, an additive effect, and antagonism, respectively. CIwt value was calculated using the formula: CIwt=(ED50+2ED75+3ED90)/6. Datasets from at least three independent experiments were combined, and each table cell contains the mean value±SD. Teri, teriflunomide. SCR, ES2-shScrambled. N/A, not applicable. Statistical analysis was carried out by one-way ANOVA with Bonferroni's post-hoc test, and differences were considered significant at ***P<0.001 as compared to the ES2 parental group with the same drug treatment.

ES2 shARID1A (b) cells = experiment: as above; assay type: cell-based; details: Homo sapiens, Table 2, VX970 alone, read-out: Dm
Description: as §2, §3, §4, §5, §6

[2] = system: ES2-shScrambled (SCR) cells; experiment: as above; assay type: cell-based; details: Homo sapiens, Table 2, VX970 alone, read-out: Dm
Description: as §2, §3, §4, §5, §6

[3] = system: ARID1A-knockout HCT116 cells; experiment: Cell growth after 72 h drug treatment, ARID1A-knockout versus wild-type cells; assay type: cell-based, human; details: 72 h treatment; compared to ARID1A wild-type HCT116 control cells
Description: Cell Lines. Adherent cell lines were cultured in RPMI 1640 (from Gibco) supplemented with 10% fetal bovine serum (from Gibco) and 1% penicillin-streptomycin (from Gibco) at 37° C., 5% CO2. Low-passage-number cells were used, and all cell lines tested negative for mycoplasma using the MycoAlert Mycoplasma Detection Kit (from Lonza). The following ovarian and endometrial cancer cell lines were used: ES26, KLE5, SKOV3, OVISE (from JCRB Cell Bank), and HEC-1-A5 cells and their stably transfected subclones, as described below. Cell lines were authenticated using the GenePrint10 kit (form Promega) and matching to their original profiles (at ATCC). ARID1A protein expression status was confirmed by immunoblotting. HEK293FT cells were from Thermo Fisher Scientific. ARID1A-knockout HCT116 (homozygous truncating mutations, Q456*/Q456*) and ARID1A-wildtype HCT116 colorectal carcinoma cells were from Horizon Discovery.
as §1, with “assay. Cells were seeded in 96-well plates, with 2000 cells in 100 μL/well, and cultured for 24 h.” for “assay.”

γ-H2AX = experiment: Immunoblot and immunofluorescence of γ-H2AX in ES2 cells; assay type: cell-based, human; details: ARID1A-knockdown ES2 cells; teriflunomide 15 μM, AZD6738 1.5 μM, VX-970 0.075 μM; 24-72 h
Description: Immunoblot Analysis and Co-Immunoprecipitation Assay. For immunoblotting experiments, cells were lysed in BC200 lysis buffer [20 mM Tris-HCl (pH 7.5), 200 mM NaCl, 1 mM EDTA, 0.2% Nonidet P-40 (NP-40), freshly added complete protease inhibitor cocktail (from Roche), and PhosSTOP phosphatase inhibitor (from Roche)] or in boiling SDS lysis buffer [1% SDS and 10 mM Tris-CI (pH 7.5)], as previously described^21. Protein concentrations were quantified using a modified Lowry assay, and equal protein amounts were loaded onto a 10% SDS-PAGE gel and separated by gel electrophoresis, followed by transfer to a nitrocellulose membrane. The nitrocellulose membrane was stained with Ponceau S to confirm equal protein loading and then blocked in 2% BSA in Tris-buffered saline with 0.1% Tween-20 (tris buffered saline with tween, or TBST). Primary antibody incubation was done for 2 h at room temperature or, for phospho-specific antibodies, overnight at 4° C. An HRP-conjugated secondary antibody was used, followed by detection using enhanced chemiluminescence substrate (from Pierce). Autoradiograph images were scanned and saved as unmodified TIFF images, and densitometry analysis was done with ImageJ (from NIH) software.
Immunofluorescence. […] Images of cells were acquired using a BZ-X710 fluorescence microscope (from KEYENCE) and analyzed using ImageJ (from NIH).

Structure (SMILES): CCc1cncnc1N1CCN(Cc2nc3ccc(C(F)(F)F)cc3[nH]2)CC1 [PF-4708671]
- Drug sensitivity of ARID1A-knockdown ES2 cells [1]: significantly hypersensitive

Structure (SMILES): CNCc1ccc(-c2cc(-c3nc(-c4ccc(S(=O)(=O)C(C)C)cc4)cnc3N)on2)cc1 [VX-970]
- IC50 (ES2 cells): 165 ± 3.84 nM
- IC50 (ES2 shARID1A (a) cells): 54.3 ± 1.31 nM
- IC50 (ES2 shARID1A (b) cells): 63.3 ± 10.4 nM
- IC50 [2]: 170 ± 9.24 nM
- Drug sensitivity of ARID1A-knockout HCT116 cells [3]: more sensitive
- γ-H2AX protein levels (γ-H2AX): increased
